According to US8609695B2, “Methods of treating and/or suppressing insulin resistance” (Endorecherche, Inc., priority 1999, dated 2013):
Each block holds one molecule with its values, some of them ahead of it.

How the values were obtained:
intact female rats = assay: 6-month treatment, fat accumulation in intact female rats receiving or not LHRH-A (Example 5); assay type: in vivo, Rattus norvegicus; settings: 6-month LHRH-A treatment
Procedure: The objective of this study is to determine the effect on fat of treatment with EM-652.HCl and dehydroepiandrosterone (DHEA) in intact female rats receiving or not a luteinizing hormone releasing hormone agonist (LHRH-A, LHRH ethylamide diacetate). For this purpose, intact female rats, treated or not with LHRH-A (2 μg/rat), received daily administration of EM-652.HCl (2.5 mg/kg) and DHEA (100 mg/kg), alone or in combination, for 6 months. EM-652.HCl was administered orally, DHEA was applied topically while LHRH-A was injected subcutaneously. All treatments were administered once daily.
One hundred twenty rats were separated into 8 groups of 15 animals for conduct of the study outlined below:
The LHRH-A is available in solution at a concentration of 1.0 mg/ml. We diluted this concentrated solution (in order to obtain a final concentration of 0.004 mg/ml) by using the following vehicle: 0.3% Sodium Chloride and 0.25% Sodium Phosphate monobasic, monohydrate in water. The sodium hydroxide (aqueous) was used to adjust the pH between 5.6-6.2.
Dosing suspensions/solutions were prepared every two weeks according to the most recent body weight (group mean) except for the LHRH-A solution. For EM-652.HCl administered orally, the vehicle (0.4% methylcellulose) was added to the tested compound, previously weighed into a glass bottle, at least 48 hours prior to the first dosing day. To ensure the homogeneity of dosing suspension, it was stirred at least 48 hours at 2 to 8 C. Dosing suspension was kept at 2 to 8 C. For DHEA solution applied topically, the ethanol was added to DHEA and the mix were agitated until dissolution of DHEA. Then, the polypropylene glycol was added and the solution agitated until homogeneity. Dosing solution was kept at 2 to 8 C. For LHRH-A solution injected subcutaneously, a dilution of the concentrated solution using the appropriate vehicle was prepared every month. Dosing solution was kept at 2 to 8 C.
The administration of tested compounds or vehicle was given from on Study Day 1 of the protocol. The tested compounds were given as suspension in 0.4% methylcellulose by oral gavage (0.5 ml/gavage/rat) once daily or were applied topically in 50% ethanol-50% propylene glycol (0.5 ml/application/rat) once daily. Rats from groups 5 to 8 received also the LHRH-A once daily by subcutaneous injection (0.5 ml/injection/rat). Rats not receiving a tested compound orally and/or topically received the appropriate vehicle alone.
Body composition was measured on whole skeleton of animal under Isoflurane-induced anesthesia using dual energy x-ray absorptiometry (DEXA; QDR 4500A, Hologic) during the acclimation period and after 6 months of treatment.

[1] = system: ovariectomized female rats; assay: Uterine weight, fat and lipid, 20-day treatment (Example 13); assay type: in vivo, Rattus norvegicus; settings: 20 days
Procedure: The objective of this study was to compare the effect on uterine, weight, fat and blood lipids following treatment with EM-652.HCl, ERA-923 and lasofoxifene, administered alone or in combination with EM-652.HCl, to ovariectomized female rats. For this purpose, each compound was administered orally for 20 days to ovariectomized female rats and at the end of the treatment period, the uterus and fat were collected and weighed.
d) Diet: • Certified Rodent feed (Lab Diet #5002, pellets) and tap water were provided ad libitum. Randomization:
Seventy rats were separated into 7 groups of 9 to 11 animals for conduct of the study outlined below:
Animals from groups 2 to 9 were ovariectomized under Isoflurane-induced anesthesia on Day 7 of the study.
The vehicle or tested compounds were given as suspension in 0.4% methylcellulose by oral gavage (0.5 ml/gavage/rat) from Day 2 to Day 21 of the study.
Rats were weighed on Study Day 1 and at the necropsy (SD 22).
Approximately 24 hours after the last dosing, overnight fasted rats under Isoflurane-induced anesthesia were killed by exsanguination at the abdominal aorta.
Uteri and retroperitonal adipose tissue were removed and weighed.

[2] = system: ovariectomized female rats; assay: SERM comparison, energy balance and lipid-lipoprotein metabolism (Example 10); assay type: in vivo, Rattus norvegicus; settings: OVX rats, 20 days
Procedure: For this purpose, tested compounds were administered by oral gavage for 20 days (0.5 mg/rat for each compound; 0.5 ml/rat) in 0.4% methylcellulose to ovariectomized female rats.
d) Diet: • During acclimation period, rats received a certified rodent diet (Lab Diet #5002, pellet) and tap water ad libitum while during study period, they received a high carbonhydrate diet (diet #3) and tap water ad libitum. The diet was composed of (g/100 g): Corn starch, 31.2; Dextrose, 31.2; Casein, 20.0; corn oil, 6.4; dl-Methionine, 0.3; Vitamine mix, 1.0; AIN-76 mineral mix, 4.9; fiber, 5.0. Rats were fasted (with access to water only) around 07 h00 the morning of their necropsy Randomization:
Test group: Seventy-seven rats were assigned to 8 groups of 9-10 rats for conduct of the study outlined below.
On day 0 of the study, rats from group 2 to 8 were ovariectomized (by bilateral flank incision) under Isoflurane anesthesia. Rats from group 1 were sham-operated.
Rats were weighed on day 0 (surgery) and then, every 2 days during study period as well as on the day of necropsy.
Food consumption was evaluated every 2 days.
In order to determine the effect of treatments on fat percentage, body composition was measured on Day 17 of the study using dual energy x-ray absorptiometry (DEXA; QDR 4500A, Hologic, Waltham, Mass.).
On day 21 of the study, approximately 24 hours after the last dosing and 6 hours of fasting, animals under Ketamine-Xylazine anesthesia were killed by exsanguination at the abdominal aorta.
Blood lipids (Total cholesterol and Triglycerides) and glucose were measured on frozen serum samples using the Boehringer Mannheim Diagnostic Hitachi 911 Analyzer (Boehringer Mannheim Diagnostic Laboratory Systems). Circulating hormones and substrates (Insulin and leptin) were measured on serum sample using the following kits: • Insulin: Linco RIA kit • Leptin: Linco RIA kit Organs and Tissues Collected
The following tissues were collected and weighed: • Muscle (right soleus and right VLM), fat (right retroperitoneal and right inguinal), and brown adipose tissue.
A piece of ˜0.1 g of all tissues (except uterus and vagina) were frozen in liquid nitrogen and kept at −80 C for later determination of lipoprotein-lipase (LPL) activity.

[3] = system: human breast cancer MCF-7 cells; assay: Proliferation of MCF-7 cell line, DNA content (Example 12); assay type: cell-based; settings: MCF-7 cells
Description: MCF-7 human breast cancer cells were obtained from the American Type Culture Collection # HTB 22 at passage 147 and routinely grown in phenol red-free Dulbecco's Modified Eagle's-Ham's F12 medium, the supplements mentioned above and 5% FBS. The MCF-7 human breast adenocarcinoma cell line was derived from the pleural effusion of a patient. MCF-7 cells were used between passages 148 and 165 and subcultured weekly.
Cells in their late logarithmic growth phase were harvested with 0.1% pancreatin (Sigma) and resuspended in the appropriate medium containing 50 ng bovine insulin/ml and 5% (v/v) FBS treated twice with dextran-coated charcoal to remove endogenous steroids. Cells were plated in 24-well Falcon plastic culture plates (2 cm2/well) at the indicated density and allowed to adhere to the surface of the plates for 72 h. […] Control cells received only the ethanolic vehicle (0.1% EtOH,v/v). Cells were incubated for the specified time intervals with medium changes at 2- or 3-day intervals. Cell number was determined by measurement of DNA content.
Dose-response curves as well IC50 values were calculated using a weighted iterative nonlinear least-squares regression. All results are expressed as means±SEM.

[4] = OVX rats, commercial rodent diet, 0.5 mg oral, EM-652.HCl 2.5 mg in combinations
[5] = high carbohydrate diet, 0.5 mg/rat oral gavage

Molecule: LHRH ethylamide diacetate [LHRH-A]
increase of the percentage of body fat (intact female rats): 58%

effect on uterine weight compared to the OVX control animals [1]: no effect | Uterine Weight [1, 4]: 162.6 ± 5.2 mg | EC50 ([3]; Homo sapiens, MCF7, text summary of table 12, read-out: EC50 of inhibition (antiestrogen activity)): 3.7 nM
Molecule: Cc1c(-c2ccc(O)cc2)n(Cc2ccc(OCCN3CCCCC3)cc2)c2ccc(O)cc12 [ERA-923]
OVX-induced increase in total serum cholesterol levels ([1]; 0.5 mg): completely prevented | prevention of body weight increase induced by ovariectomy ([1]; OVX rats, 0.5 mg): 59% | Cholesterol [1, 4]: 1.20 ± 0.10 mmol/L | Final Body Weight [1, 4]: 248 ± 5 g | Serum insulin (in words) ([2]; 0.5 mg/rat): decreased | Brown adipose tissue Lipoprotein lipase activity [2, 5]: 1017 ± 83 μU/g protein | Brown adipose tissue weight [2, 5]: 0.350 ± 0.019 g | Cumulative food intake [2, 5]: 347 ± 9 g | Serum glucose [2, 5]: 16.5 ± 2.7 mmol/L | Serum insulin [2, 5]: 0.113 ± 0.029 nmol/L | Serum leptin [2, 5]: 2.12 ± 0.44 ng/mL | Serum total cholesterol [2, 5]: 1.66 ± 0.16 mmol/L | Serum triglycerides [2, 5]: 0.93 ± 0.24 mmol/L | Soleus muscle Lipoprotein lipase activity [2, 5]: 11.7 ± 1.9 μU/g protein | Soleus muscle weight [2, 5]: 0.100 ± 0.004 g | Total weight [2, 5]: 260 ± 5 g | VastusLateralis muscle weight [2, 5]: 0.993 ± 0.33 g | White adipose tissue inguinal Lipoprotein lipase activity [2, 5]: 766 ± 173 μU/g protein | White adipose tissue inguinal weight [2, 5]: 0.326 ± 0.042 g | White adipose tissue retroperitoneal Lipoprotein lipase activity [2, 5]: 1750 ± 140 μU/g protein | White adipose tissue retroperitoneal weight [2, 5]: 1.27 ± 0.15 g | Stimulation of DNA by tested compounds % of 1 nM E2 stimulation ([3]; absence of E2): N.S.
